The source made the active and inactive calls. The calls are words filed in the database; no cut-off is given here.
Target: Signal transducer and activator of transcription 3 (Homo sapiens) (UniProt P40763)
Experiment: Inhibition of STAT3 in human HeLa cells after 24 hrs by luciferase reporter gene assay
Type: cell-based

Chain of Signal transducer and activator of transcription 3 (Homo sapiens) (P40763 whole entry): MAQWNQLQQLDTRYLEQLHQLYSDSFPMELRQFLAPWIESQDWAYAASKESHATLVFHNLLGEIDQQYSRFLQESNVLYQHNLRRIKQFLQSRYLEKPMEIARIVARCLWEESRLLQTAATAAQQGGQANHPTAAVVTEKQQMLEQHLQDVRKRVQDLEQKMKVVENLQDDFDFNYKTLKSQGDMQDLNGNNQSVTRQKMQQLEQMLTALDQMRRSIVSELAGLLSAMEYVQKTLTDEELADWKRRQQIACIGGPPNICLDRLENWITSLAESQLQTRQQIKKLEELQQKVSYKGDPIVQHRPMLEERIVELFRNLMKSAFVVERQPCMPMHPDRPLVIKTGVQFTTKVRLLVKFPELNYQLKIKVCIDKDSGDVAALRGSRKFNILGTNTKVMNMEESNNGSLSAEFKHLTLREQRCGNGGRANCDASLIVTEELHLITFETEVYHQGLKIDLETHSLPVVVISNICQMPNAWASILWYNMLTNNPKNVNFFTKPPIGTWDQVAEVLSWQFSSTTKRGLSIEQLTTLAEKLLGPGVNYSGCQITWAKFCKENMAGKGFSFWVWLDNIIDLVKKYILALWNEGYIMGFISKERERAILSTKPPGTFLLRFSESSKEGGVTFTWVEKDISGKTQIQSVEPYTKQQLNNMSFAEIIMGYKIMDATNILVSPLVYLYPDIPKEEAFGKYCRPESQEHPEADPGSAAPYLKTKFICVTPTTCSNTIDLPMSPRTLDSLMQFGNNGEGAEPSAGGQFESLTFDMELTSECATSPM

Structure (SMILES) | inhibition
COc1ccc(-c2cc(=O)c3c(O)cc(O[C@@H]4O[C@H](CO[C@@H]5O[C@@H](C)[C@H](O)[C@@H](O)[C@H]5O)[C@@H](O)[C@H](O)[C@H]4O)cc3o2)cc1O | inactive
COc1ccc(C(=O)N2CCCC2=O)cc1 | inactive
